Assay results from ChEMBL document CHEMBL1201862, “PubChem BioAssay data set” (2004).
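Tested at 5 concentrations; 48 h exposure; 96-well plates; endpoints linearly interpolated, else capped at highest concentration. At the GI50, growth is halved.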 Active and inactive are the calls of the source. Rule as the data show it: active = GI50 up to about 1.1 µM and inactive = higher.

Experiments:
Experiment in all cases: NCI anticancer screen, dose series, 48 h
BT-549 = system: BT-549
CCRF-CEM = system: CCRF-CEM
M14 = system: M14
MDA-MB-231 = system: MDA-MB-231
SK-OV-3 = system: SK-OV-3
SNB-78 = system: SNB-78
Malme-3M = system: Malme-3M
LXFL 529 = system: LXFL 529
CAKI-1 = system: CAKI-1
RPMI-8226 = system: RPMI-8226
OVCAR-4 = system: OVCAR-4
SK-MEL-2 = system: SK-MEL-2
UO-31 = system: UO-31
KM-20L2 = system: KM-20L2
HL-60 = system: HL-60
DMS-273 = system: DMS-273
HCT-15 = system: HCT-15
SK-MEL-5 = system: SK-MEL-5
SNB-75 = system: SNB-75
XF498 = system: XF498
EKVX = system: EKVX
M19-MEL = system: M19-MEL
OVCAR-3 = system: OVCAR-3
MOLT-4 = system: MOLT-4
DMS-114 = system: DMS-114
IGROV-1 = system: IGROV-1
HOP-18 = system: HOP-18
HCC 2998 = system: HCC 2998
RXF 631 = system: RXF 631
SF-268 = system: SF-268
RXF 393 = system: RXF 393
LOX IMVI = system: LOX IMVI
K562 = system: K562
SN12C = system: SN12C
HCT-116 = system: HCT-116
A549 = system: A549
PC-3 = system: PC-3
SF-539 = system: SF-539
NCI-H522 = system: NCI-H522
SF-295 = system: SF-295
COLO 205 = system: COLO 205
SNB-19 = system: SNB-19
HT-29 = system: HT-29
786-0 = system: 786-0
KM12 = system: KM12
ACHN = system: ACHN
NCI-H23 = system: NCI-H23
OVCAR-5 = system: OVCAR-5
DLD-1 = system: DLD-1
UACC-257 = system: UACC-257
HOP-92 = system: HOP-92
TK-10 = system: TK-10
U-251 = system: U-251
UACC-62 = system: UACC-62
SK-MEL-28 = system: SK-MEL-28
HOP-62 = system: HOP-62
NCI-H460 = system: NCI-H460
A498 = system: A498
SW-620 = system: SW-620
OVCAR-8 = system: OVCAR-8

In the case of `CC1CCC2C(C)C(=O)OC3OC4(C)CCC1C32OO4` (stereo not given), the GI50 (BT-549) is reported as 86.5 µM (inactive), the GI50 (CCRF-CEM) is reported as 83 µM (inactive) and the GI50 (M14) is reported as > 100 µM (inactive). The GI50 (MDA-MB-231) was 62.4 µM (inactive), the GI50 (SK-OV-3) was > 100 µM (inactive) and the GI50 (SNB-78) was > 100 µM (inactive). The GI50 (Malme-3M) was > 100 µM (inactive), the GI50 (LXFL 529) was 65.5 µM (inactive) and the GI50 (CAKI-1) was > 100 µM (inactive). The GI50 (RPMI-8226) was 53.2 µM (inactive), the GI50 (OVCAR-4) was > 72.8 µM (inactive) and the GI50 (SK-MEL-2) was > 100 µM (inactive). The GI50 (UO-31) was 82.2 µM (inactive), the GI50 (KM-20L2) was > 100 µM (inactive) and the GI50 (HL-60) was 37.4 µM (inactive). For the same molecule, the GI50 (DMS-273) was > 100 µM (inactive), the GI50 (HCT-15) was 98.4 µM and the GI50 (SK-MEL-5) was > 96.2 µM (inactive). For the same molecule, the GI50 (SNB-75) was 61.7 µM (inactive), the GI50 (XF498) was > 100 µM (inactive) and the GI50 (EKVX) was > 97.1 µM (inactive). For the same molecule, the GI50 (M19-MEL) was > 100 µM (inactive), the GI50 (OVCAR-3) was > 67.3 µM (inactive) and the GI50 (MOLT-4) was 66.1 µM (inactive). For the same molecule, the GI50 (DMS-114) was > 80.4 µM (inactive), the GI50 (IGROV-1) was > 88.9 µM (inactive) and the GI50 (HOP-18) was 61.8 µM (inactive). For the same molecule, the GI50 (HCC 2998) was > 100 µM (inactive), the GI50 (RXF 631) was > 100 µM (inactive) and the GI50 (SF-268) was > 100 µM (inactive). The GI50 (RXF 393) was 72.9 µM (inactive), the GI50 (LOX IMVI) was 97.9 µM (inactive) and the GI50 (K562) was 33.1 µM (inactive). For the same molecule, the GI50 (SN12C) was > 92.3 µM (inactive), the GI50 (HCT-116) was 81.7 µM (inactive) and the GI50 (A549) was 89.1 µM (inactive). The GI50 (PC-3) was 66.8 µM (inactive), the GI50 (SF-539) was > 100 µM (inactive) and the GI50 (NCI-H522) was 45.1 µM (inactive). For the same molecule, the GI50 (SF-295) was > 100 µM (inactive).
`O=c1c2ccccc2nc2n1-c1ccccc1SC2` was tested, and the GI50 (COLO 205) was 92.9 µM (inactive), the GI50 (CCRF-CEM) was 38.8 µM (inactive) and the GI50 (M14) was 50.5 µM (inactive). The GI50 (SK-OV-3) was > 100 µM (inactive), the GI50 (SNB-19) was > 100 µM (inactive) and the GI50 (SNB-78) was > 100 µM (inactive). The GI50 (HT-29) was > 100 µM (inactive), the GI50 (786-0) was > 100 µM (inactive) and the GI50 (Malme-3M) was 37.8 µM (inactive). For the same molecule, the GI50 (KM12) was 29.5 µM (inactive), the GI50 (LXFL 529) was 34.4 µM (inactive) and the GI50 (CAKI-1) was > 100 µM (inactive). For the same molecule, the GI50 (ACHN) was 54.7 µM (inactive), the GI50 (RPMI-8226) was 24.3 µM (inactive) and the GI50 (NCI-H23) was 38.1 µM (inactive). The GI50 (OVCAR-4) was 64.3 µM (inactive), the GI50 (OVCAR-5) was > 100 µM (inactive) and the GI50 (SK-MEL-2) was > 100 µM (inactive). For the same molecule, the GI50 (DLD-1) was 55.5 µM (inactive), the GI50 (UO-31) was 48.2 µM (inactive) and the GI50 (KM-20L2) was > 100 µM (inactive). The GI50 (DMS-273) was 47.2 µM (inactive), the GI50 (HCT-15) was 54.1 µM and the GI50 (SK-MEL-5) was 30.1 µM (inactive). The GI50 (UACC-257) was 39.4 µM (inactive), the GI50 (SNB-75) was 17.7 µM (inactive) and the GI50 (XF498) was 30.6 µM (inactive). The GI50 (HOP-92) was 55.1 µM (inactive), the GI50 (TK-10) was > 100 µM (inactive) and the GI50 (U-251) was 84.7 µM (inactive). For the same molecule, the GI50 (EKVX) was 25.5 µM (inactive), the GI50 (M19-MEL) was 67.1 µM (inactive) and the GI50 (OVCAR-3) was 64.9 µM (inactive). For the same molecule, the GI50 (MOLT-4) was 21.4 µM (inactive), the GI50 (DMS-114) was 34.7 µM (inactive) and the GI50 (UACC-62) was 33.7 µM (inactive). The GI50 (IGROV-1) was 66.5 µM (inactive), the GI50 (HCC 2998) was 81.1 µM (inactive) and the GI50 (SK-MEL-28) was 71.3 µM (inactive). The GI50 (RXF 631) was 93.5 µM (inactive), the GI50 (SF-268) was 60 µM (inactive) and the GI50 (RXF 393) was 58.3 µM (inactive). The GI50 (LOX IMVI) was > 100 µM (inactive), the GI50 (K562) was 36.7 µM (inactive) and the GI50 (HOP-62) was > 100 µM (inactive). For the same molecule, the GI50 (NCI-H460) was 40.2 µM (inactive), the GI50 (SN12C) was 51.2 µM (inactive) and the GI50 (A498) was 47.9 µM (inactive). The GI50 (HCT-116) was 47.2 µM (inactive), the GI50 (A549) was > 100 µM (inactive) and the GI50 (SF-539) was > 100 µM (inactive). The GI50 (SW-620) was > 100 µM (inactive), the GI50 (OVCAR-8) was 38 µM (inactive) and the GI50 (NCI-H522) was 20.5 µM (inactive). The GI50 (SF-295) was > 100 µM (inactive).
